Laboratory results reported in publication PMC5218480 (PLoS ONE, 2017).

System: MV-4-11 cells
Experiment: Gene expression microarray analysis (Affymetrix PrimeView) and GSEA
Type: cell-based, human
Set-up: RFU PODN (11730768_x_at) / Fold change /veh PODN (11730768_x_at) / RFU LINC00158 (11744669_a_at) / Fold change /veh LINC00158 (11744669_a_at) / RFU DUSP10 (11751237_a_at) / Fold change /veh DUSP10 (11751237_a_at) / RFU ID3 (11757404_x_at) / Fold change /veh ID3 (11757404_x_at) / RFU PLEKHG5 (11737974_s_at) / Fold change /veh PLEKHG5 (11737974_s_at) / RFU LRRC4B (11730491_at) / Fold change /veh LRRC4B (11730491_at) / RFU GIMAP4 (11747438_a_at) / Fold change /veh GIMAP4 (11747438_a_at) / RFU KRT8 (11758183_x_at) / Fold change /veh KRT8 (11758183_x_at) / RFU CNN1 (11734310_a_at) / Fold change /veh CNN1 (11734310_a_at) / RFU VPS37D (11726825_at) / Fold change /veh VPS37D (11726825_at) / RFU C10orf10 (11716522_x_at) / Fold change /veh C10orf10 (11716522_x_at) / RFU KIR2DL2 /// KIR2DL4 /// KIR2DL5A /// KIR2DL5B /// KIR2DS1 /// KIR2DS2 /// KIR2DS3 /// KIR2DS4 /// KIR3DL3 /// KIR3DL3 /// KIR3DS1 (11738374_at) / Fold change /veh KIR2DL2 /// KIR2DL4 /// KIR2DL5A /// KIR2DL5B /// KIR2DS1 /// KIR2DS2 /// KIR2DS3 /// KIR2DS4 /// KIR3DL3 /// KIR3DL3 /// KIR3DS1 (11738374_at) / RFU C1QL1 (11718748_at) / Fold change /veh C1QL1 (11718748_at) / RFU TMPRSS4 (11747572_a_at) / Fold change /veh TMPRSS4 (11747572_a_at) / RFU HAMP (11756126_x_at) / Fold change /veh HAMP (11756126_x_at) / RFU RNFT2 (11725882_a_at) / Fold change /veh RNFT2 (11725882_a_at) / RFU NR4A2 (11747474_a_at) / Fold change /veh NR4A2 (11747474_a_at) / RFU ABCC12 (11746883_a_at) / Fold change /veh ABCC12 (11746883_a_at) / RFU TMEM136 (11760407_x_at) / Fold change /veh TMEM136 (11760407_x_at) / RFU CLDN22 /// WWC2 (11732394_at) / Fold change /veh CLDN22 /// WWC2 (11732394_at) / RFU HLA-DPB1 (11760878_x_at) / Fold change /veh HLA-DPB1 (11760878_x_at) / RFU SPINT1 (11716480_a_at) / Fold change /veh SPINT1 (11716480_a_at) / RFU GAP43 (11754022_s_at) / Fold change /veh GAP43 (11754022_s_at) / RFU A4GNT (11735810_at) / Fold change /veh A4GNT (11735810_at) / RFU PRB3 (11715151_x_at) / Fold change /veh PRB3 (11715151_x_at) / RFU TUBB4B (11761932_at) / Fold change /veh TUBB4B (11761932_at) / RFU CAPN14 (11732068_a_at) / Fold change /veh CAPN14 (11732068_a_at) / RFU TMCC2 (11721928_a_at) / Fold change /veh TMCC2 (11721928_a_at) / RFU IRGQ (11745062_a_at) / Fold change /veh IRGQ (11745062_a_at) / RFU FAM174B (11720279_a_at) / Fold change /veh FAM174B (11720279_a_at) / RFU TMPRSS4 (11748680_a_at) / Fold change /veh TMPRSS4 (11748680_a_at) / RFU FAM212B (11763350_a_at) / Fold change /veh FAM212B (11763350_a_at) / RFU PLEKHG5 (11743358_a_at) / Fold change /veh PLEKHG5 (11743358_a_at) / RFU ZSCAN30 (11745921_a_at) / Fold change /veh ZSCAN30 (11745921_a_at) / RFU CMKLR1 (11741424_a_at) / Fold change /veh CMKLR1 (11741424_a_at) / RFU LOC101060620 /// MAPK8IP1 (11723275_at) / Fold change /veh LOC101060620 /// MAPK8IP1 (11723275_at) / RFU SPTSSB (11747773_x_at) / Fold change /veh SPTSSB (11747773_x_at) / RFU PRSS12 (11739890_at) / Fold change /veh PRSS12 (11739890_at) / RFU BIN1 (11741810_x_at) / Fold change /veh BIN1 (11741810_x_at) / RFU WNT11 (11732464_a_at) / Fold change /veh WNT11 (11732464_a_at) / RFU C10orf10 (11716521_a_at) / Fold change /veh C10orf10 (11716521_a_at) / RFU C5orf56 (11738089_at) / Fold change /veh C5orf56 (11738089_at) / RFU CYB561 (11721691_x_at) / Fold change /veh CYB561 (11721691_x_at) / RFU ANKRD19P (11752326_a_at) / Fold change /veh ANKRD19P (11752326_a_at) / RFU OR2T12 /// OR2T33 /// OR2T8 (11738714_s_at) / Fold change /veh OR2T12 /// OR2T33 /// OR2T8 (11738714_s_at) / RFU VCAN (11748164_a_at) / Fold change /veh VCAN (11748164_a_at) / RFU JSRP1 (11732532_at) / Fold change /veh JSRP1 (11732532_at) / RFU KRTAP10-11 (11738290_x_at) / Fold change /veh KRTAP10-11 (11738290_x_at) / RFU MYO3A (11730013_a_at) / Fold change /veh MYO3A (11730013_a_at) / RFU EBF3 (11725865_a_at) / Fold change /veh EBF3 (11725865_a_at) / RFU CAMK2N1 (11719241_x_at) / Fold change /veh CAMK2N1 (11719241_x_at) / RFU C5orf56 (11738088_a_at) / Fold change /veh C5orf56 (11738088_a_at) / RFU OLFML3 (11715873_a_at) / Fold change /veh OLFML3 (11715873_a_at) / RFU LOC100653217 /// NTM (11731650_a_at) / Fold change /veh LOC100653217 /// NTM (11731650_a_at) / RFU MAPK11 (11762145_a_at) / Fold change /veh MAPK11 (11762145_a_at) / RFU FIZ1 (11724087_x_at) / Fold change /veh FIZ1 (11724087_x_at) / RFU OASL (11726364_x_at) / Fold change /veh OASL (11726364_x_at) / RFU SOX15 (11748057_x_at) / Fold change /veh SOX15 (11748057_x_at) / RFU CD79A (11719716_a_at) / Fold change /veh CD79A (11719716_a_at) / RFU HIST1H1D (11736915_at) / Fold change /veh HIST1H1D (11736915_at) / RFU CASKIN2 (11723855_a_at) / Fold change /veh CASKIN2 (11723855_a_at) / RFU LOC730098 (11760151_x_at) / Fold change /veh LOC730098 (11760151_x_at) / RFU OR4N2 (11742367_at) / Fold change /veh OR4N2 (11742367_at) / RFU PRRT2 (11749266_a_at) / Fold change /veh PRRT2 (11749266_a_at) / RFU SNX32 (11753110_a_at) / Fold change /veh SNX32 (11753110_a_at) / RFU CDHR5 (11726645_a_at) / Fold change /veh CDHR5 (11726645_a_at) / RFU RCAN1 (11760418_a_at) / Fold change /veh RCAN1 (11760418_a_at) / RFU FAM167A (11723789_a_at) / Fold change /veh FAM167A (11723789_a_at) / RFU FAM26E (11764081_at) / Fold change /veh FAM26E (11764081_at) / RFU ISYNA1 (11749810_s_at) / Fold change /veh ISYNA1 (11749810_s_at) / RFU ACY1 (11761880_at) / Fold change /veh ACY1 (11761880_at) / RFU 11764098_at / Fold change /veh 11764098_at / RFU SAMD14 (11745864_x_at) / Fold change /veh SAMD14 (11745864_x_at) / RFU NPB (11741838_a_at) / Fold change /veh NPB (11741838_a_at) / RFU TMPRSS6 (11731388_a_at) / Fold change /veh TMPRSS6 (11731388_a_at) / RFU KRTAP10-2 (11738614_at) / Fold change /veh KRTAP10-2 (11738614_at) / RFU ARHGAP8 /// PRR5-ARHGAP8 (11727945_x_at) / Fold change /veh ARHGAP8 /// PRR5-ARHGAP8 (11727945_x_at) / RFU KRTAP5-7 /// NADSYN1 (11734609_at) / Fold change /veh KRTAP5-7 /// NADSYN1 (11734609_at) / RFU RASL12 (11751679_a_at) / Fold change /veh RASL12 (11751679_a_at) / RFU CDKN2B (11736163_a_at) / Fold change /veh CDKN2B (11736163_a_at) / RFU PRF1 (11729649_at) / Fold change /veh PRF1 (11729649_at) / RFU, ZNF638 /// ZNF638-IT1 / Fold change vs veh, ZNF638 /// ZNF638-IT1 / RFU, PANK3 / Fold change vs veh, PANK3 / RFU, SH3YL1 / Fold change vs veh, SH3YL1 / RFU, ZEB2 / Fold change vs veh, ZEB2 / RFU, NRIP1 / Fold change vs veh, NRIP1 / RFU, PTTG1IP / Fold change vs veh, PTTG1IP / RFU, CAPN2 / Fold change vs veh, CAPN2 / RFU, MED14 / Fold change vs veh, MED14 / RFU, SNORA58 / Fold change vs veh, SNORA58 / RFU, C1orf63 / Fold change vs veh, C1orf63 / RFU, LRRFIP1 / Fold change vs veh, LRRFIP1 / RFU, NDUFAF7 / Fold change vs veh, NDUFAF7 / RFU, SLC12A2 / Fold change vs veh, SLC12A2 / RFU, IBTK / Fold change vs veh, IBTK / RFU, ESF1 / Fold change vs veh, ESF1 / Fold change vs veh, TMEM50B / RFU, TAOK1 / Fold change vs veh, TAOK1 / RFU, ACBD3 / Fold change vs veh, ACBD3 / RFU, TMA16 / Fold change vs veh, TMA16 / RFU, RWDD3 / Fold change vs veh, RWDD3 / RFU, BCAT1 / Fold change vs veh, BCAT1 / RFU, EDEM3 / Fold change vs veh, EDEM3 / RFU, TMEM33 / Fold change vs veh, TMEM33 / RFU, WDR75 / Fold change vs veh, WDR75 / RFU, AHCTF1 / Fold change vs veh, AHCTF1 / RFU, TFRC / Fold change vs veh, TFRC / RFU, ZDHHC17 / Fold change vs veh, ZDHHC17 / RFU, NOM1 / Fold change vs veh, NOM1 / RFU, ARL8B / Fold change vs veh, ARL8B / RFU, ZBTB11 / Fold change vs veh, ZBTB11 / RFU, TAMM41 / Fold change vs veh, TAMM41 / RFU, KIAA1704 /// LOC100996395 / Fold change vs veh, KIAA1704 /// LOC100996395 / RFU, ING1 / Fold change vs veh, ING1 / RFU, TRMT61B / Fold change vs veh, TRMT61B / RFU, FUBP3 / Fold change vs veh, FUBP3 / RFU, TP53 / Fold change vs veh, TP53 / RFU, TNKS2 / Fold change vs veh, TNKS2 / RFU, ZFP14 / Fold change vs veh, ZFP14 / RFU, ACTR2 / Fold change vs veh, ACTR2 / RFU, PPP3R1 / Fold change vs veh, PPP3R1 / RFU, PIK3R1 / Fold change vs veh, PIK3R1 / RFU, HNRNPA1 / Fold change vs veh, HNRNPA1 / RFU, RNF170 / Fold change vs veh, RNF170 / RFU, ZNF28 / Fold change vs veh, ZNF28 / RFU, RNGTT / Fold change vs veh, RNGTT / RFU, OGT / Fold change vs veh, OGT / RFU, BRD1 / Fold change vs veh, BRD1 / RFU, MARS / Fold change vs veh, MARS / RFU, ZNF655 / Fold change vs veh, ZNF655 / RFU, FAHD1 / Fold change vs veh, FAHD1 / RFU, BDP1 / Fold change vs veh, BDP1 / RFU, LRRCC1 / Fold change vs veh, LRRCC1 / RFU, ARID1A / Fold change vs veh, ARID1A / RFU, ZNF146 / Fold change vs veh, ZNF146 / RFU, ZNF330 / Fold change vs veh, ZNF330 / RFU, GPN3 / Fold change vs veh, GPN3 / RFU, C9orf123 / Fold change vs veh, C9orf123 / RFU, N4BP2L2 / Fold change vs veh, N4BP2L2 / RFU, ARFIP1 / Fold change vs veh, ARFIP1 / RFU, FAM179B / Fold change vs veh, FAM179B / RFU, BCL10 / Fold change vs veh, BCL10 / RFU, UHRF1BP1L / Fold change vs veh, UHRF1BP1L / RFU, BET1 / Fold change vs veh, BET1 / RFU, CNOT2 / Fold change vs veh, CNOT2 / RFU, ZNF268 / Fold change vs veh, ZNF268 / Fold change vs veh, ZNF507 / RFU, DGCR2 / Fold change vs veh, DGCR2 / RFU, WDSUB1 / Fold change vs veh, WDSUB1 / Fold change vs veh, HSP90B1 /// MIR3652 / RFU, ADSS / Fold change vs veh, ADSS / RFU, GK / Fold change vs veh, GK / RFU, ZNF148 / Fold change vs veh, ZNF148 / RFU, TAF9 / Fold change vs veh, TAF9 / RFU, SLC1A5 / Fold change vs veh, SLC1A5 / RFU, SLMO2 / Fold change vs veh, SLMO2 / RFU, ABCC4 / Fold change vs veh, ABCC4 / RFU, LOC101060439 /// RAP1B / Fold change vs veh, LOC101060439 /// RAP1B / RFU, RFX7 / Fold change vs veh, RFX7 / RFU, GTPBP10 / Fold change vs veh, GTPBP10 / RFU, CNEP1R1 / Fold change vs veh, CNEP1R1 / RFU, BIVM-ERCC5 /// ERCC5 / Fold change vs veh, BIVM-ERCC5 /// ERCC5 / RFU, ILF3 / Fold change vs veh, ILF3 / RFU 11762660_at / Fold change /veh 11762660_at / RFU VCAN (11757783_s_at) / Fold change /veh VCAN (11757783_s_at) / RFU DDX43 (11728927_at) / Fold change /veh DDX43 (11728927_at) / RFU KRT8 (11758188_x_at) / Fold change /veh KRT8 (11758188_x_at) / RFU NKD1 (11759106_at) / Fold change /veh NKD1 (11759106_at) / RFU SRD5A1 (11742802_a_at) / Fold change /veh SRD5A1 (11742802_a_at) / RFU TPSAB1 /// TPSB2 (11721975_s_at) / Fold change /veh TPSAB1 /// TPSB2 (11721975_s_at) / RFU GSTM3 (11746129_a_at) / Fold change /veh GSTM3 (11746129_a_at) / RFU IL23R (11737362_x_at) / Fold change /veh IL23R (11737362_x_at) / RFU TMEM51 (11727254_a_at) / Fold change /veh TMEM51 (11727254_a_at) / RFU PIWIL2 (11732686_x_at) / Fold change /veh PIWIL2 (11732686_x_at) / RFU ORM1 (11744905_x_at) / Fold change /veh ORM1 (11744905_x_at) / RFU CCDC152 (11743942_at) / Fold change /veh CCDC152 (11743942_at) / RFU ECM1 (11717891_a_at) / Fold change /veh ECM1 (11717891_a_at) / RFU IL23R (11748794_a_at) / Fold change /veh IL23R (11748794_a_at) / RFU TNFAIP8L3 (11732012_x_at) / Fold change /veh TNFAIP8L3 (11732012_x_at) / RFU MBOAT4 (11741988_at) / Fold change /veh MBOAT4 (11741988_at) / RFU 11764193_at / Fold change /veh 11764193_at / RFU TMEM53 (11763286_at) / Fold change /veh TMEM53 (11763286_at) / RFU MAGEB2 (11727129_at) / Fold change /veh MAGEB2 (11727129_at) / RFU TMEM200A (11744735_a_at) / Fold change /veh TMEM200A (11744735_a_at) / RFU CCDC152 (11751479_a_at) / Fold change /veh CCDC152 (11751479_a_at) / RFU FAM211A (11726209_a_at) / Fold change /veh FAM211A (11726209_a_at) / RFU RGS16 (11746705_a_at) / Fold change /veh RGS16 (11746705_a_at) / RFU VCAN (11755009_s_at) / Fold change /veh VCAN (11755009_s_at) / RFU RHOB (11743442_s_at) / Fold change /veh RHOB (11743442_s_at) / RFU RGS16 (11720943_a_at) / Fold change /veh RGS16 (11720943_a_at) / RFU RGS16 (11720944_at) / Fold change /veh RGS16 (11720944_at) / RFU, VPS4B / Fold change vs veh, VPS4B / RFU, CREB1 / Fold change vs veh, CREB1 / RFU, DNAJC13 / Fold change vs veh, DNAJC13 / RFU, GNAQ / Fold change vs veh, GNAQ / RFU, CDK5R1 / Fold change vs veh, CDK5R1 / RFU, ZRANB3 / Fold change vs veh, ZRANB3 / RFU, CUL4A / Fold change vs veh, CUL4A / RFU, CCNY / Fold change vs veh, CCNY / RFU, UFL1 / Fold change vs veh, UFL1 / RFU, COG3 / Fold change vs veh, COG3 / RFU, DIAPH2 / Fold change vs veh, DIAPH2 / RFU, SKA2 / Fold change vs veh, SKA2 / RFU, AFF3 / Fold change vs veh, AFF3 / RFU, LMF1 / Fold change vs veh, LMF1 / RFU, IPO11 / Fold change vs veh, IPO11 / RFU, DFFB / Fold change vs veh, DFFB / RFU, FOXP1 / Fold change vs veh, FOXP1 / RFU, CARD8 / Fold change vs veh, CARD8 / RFU, STRN3 / Fold change vs veh, STRN3 / RFU, ADK / Fold change vs veh, ADK / RFU, RASSF2 / Fold change vs veh, RASSF2 / RFU, WIPF1 / Fold change vs veh, WIPF1 / RFU, LARP1B / Fold change vs veh, LARP1B / RFU, RASA1 / Fold change vs veh, RASA1 / RFU, RB1 / Fold change vs veh, RB1 / RFU, PPFIA1 / Fold change vs veh, PPFIA1 / RFU, MAT2A / Fold change vs veh, MAT2A / RFU, CCT5 / Fold change vs veh, CCT5 / RFU, WDR92 / Fold change vs veh, WDR92 / RFU, CUX1 / Fold change vs veh, CUX1 / RFU, TTC7A / Fold change vs veh, TTC7A / RFU, TMEM135 / Fold change vs veh, TMEM135 / RFU, DEPTOR / Fold change vs veh, DEPTOR / RFU, CPM / Fold change vs veh, CPM / RFU, DNAJB6 / Fold change vs veh, DNAJB6 / RFU, CACNA2D3 / Fold change vs veh, CACNA2D3 / RFU, DTX4 / Fold change vs veh, DTX4 / RFU, TFCP2 / Fold change vs veh, TFCP2 / RFU, GMCL1 /// GMCL1P1 / Fold change vs veh, GMCL1 /// GMCL1P1 / RFU, AEBP2 / Fold change vs veh, AEBP2 / RFU, SNHG1 /// SNORD22 /// SNORD25 /// SNORD26 /// SNORD27 /// SNORD28 /// SNORD29 /// SNORD31 / Fold change vs veh, SNHG1 /// SNORD22 /// SNORD25 /// SNORD26 /// SNORD27 /// SNORD28 /// SNORD29 /// SNORD31 / Fold change (Aza/veh), C12orf56 (ProbeSet 11735607_a_at) / Fold change (ACY-1035/veh), C12orf56 (ProbeSet 11735607_a_at) / Fold change (Aza/veh), FGFR1OP (ProbeSet 11751329_s_at) / Fold change (ACY-1035/veh), FGFR1OP (ProbeSet 11751329_s_at) / Fold change (Aza/veh), VPS36 (ProbeSet 11739960_a_at) / Fold change (ACY-1035/veh), VPS36 (ProbeSet 11739960_a_at) / RFU SYPL1 (11715823_x_at) / Fold change /veh SYPL1 (11715823_x_at) / RFU IGFBP7 (11715501_s_at) / Fold change /veh IGFBP7 (11715501_s_at) / RFU REEP3 (11722064_at) / Fold change /veh REEP3 (11722064_at) / RFU IGLL1 (11728026_x_at) / Fold change /veh IGLL1 (11728026_x_at): dose or concentration left out as unconfirmed
Settings: MV-4-11 cells, 48 hours

SMILES: Nc1ccc(-c2cccs2)cc1NC(=O)c1ccc2c(c1)cc(C1CC1)n2CCN1CCOCC1 [ACY-1035]
- RFU RASL12 (11751679_a_at): 18.80 RFU
